From ChEMBL document CHEMBL1125860 (J Med Chem, 1991)
Each block holds one molecule with its values, some of them ahead of it. Active and inactive are the calls of the source. The calls are words filed in the database; no cut-off is given here.

Key:
Rattus norvegicus [1] = test: In vivo inhibition of galactitol accumulation in diaphragm of rat at 24 mg/kg/day; format: functional
[2] = target: Aldo-keto reductase family 1 member B1 (Bos taurus) (UniProt P16116); test: In vitro % decrease of aldose reductase was measured in isolated partially purified bovine lens preparations at 10e-7 M concentration; Not active
Rattus norvegicus [3] = test: In vivo inhibition of galactitol accumulation in sciatic nerves of rat at 20 mg/kg/day; Not significant; format: functional, organism-based; settings: Sciatic nerve
Rattus norvegicus [4] = test: In vivo inhibition of galactitol accumulation in diaphragm of rat at 20 mg/kg/day; Not significant; format: functional, organism-based
Rattus norvegicus [5] = test: In vivo inhibition of galactitol accumulation in sciatic nerves of rat at 24 mg/kg/day; format: functional; settings: Sciatic nerve
Rattus norvegicus [6] = test: In vivo inhibition of galactitol accumulation in sciatic nerves of rat at 27 mg/kg/day; Not significant; format: functional, organism-based; settings: Sciatic nerve
Rattus norvegicus [7] = test: In vivo inhibition of galactitol accumulation in diaphragm of rat at 27 mg/kg/day; format: functional
[8] = target: Aldo-keto reductase family 1 member B1 (Bos taurus) (UniProt P16116); test: In vitro % decrease of aldose reductase measured in isolated partially purified bovine lens preparations at 10e-7 M concentration
Rattus norvegicus [9] = species on record: Rattus norvegicus; test: In vitro inhibition of sorbitol accumulation was measured in rat sciatic nerves incubated in the presence of 50 mM glucose at 10e-5 M concentration; format: functional, Sciatic nerve
Rattus norvegicus [10] = species on record: Rattus norvegicus; test: In vitro inhibition of sorbitol accumulation was measured in rat sciatic nerves incubated in the presence of 50 mM glucose at 10e-6 M concentration; format: functional, Sciatic nerve
Rattus norvegicus [11] = test: In vivo inhibition of galactitol accumulation in sciatic nerves of rat at 24 mg/kg/day; Not significant; format: functional, organism-based; settings: Sciatic nerve
Rattus norvegicus [12] = test: In vivo inhibition of galactitol accumulation in sciatic nerves of rat at 25 mg/kg/day; format: functional; settings: Sciatic nerve
Rattus norvegicus [13] = test: In vivo inhibition of galactitol accumulation in sciatic nerves at 5 mg/kg/day; Not significant; format: functional, organism-based; settings: Sciatic nerve
Rattus norvegicus [14] = test: In vivo inhibition of galactitol accumulation in diaphragm of rat at 25 mg/kg/day; format: functional
Rattus norvegicus [15] = test: In vivo inhibition of galactitol accumulation in sciatic nerves of rat at 26 mg/kg/day; Not significant; format: functional, organism-based; settings: Sciatic nerve
Rattus norvegicus [16] = test: In vivo inhibition of galactitol accumulation in diaphragm of rat at 26 mg/kg/day; format: functional
Rattus norvegicus [17] = test: In vivo inhibition of galactitol accumulation in diaphragm of rat at 5 mg/kg/day; format: functional
Rattus norvegicus [18] = test: In vivo inhibition of galactitol accumulation in sciatic nerves of rat at 2 mg/kg/day; Not significant; format: functional, organism-based; settings: Sciatic nerve
Rattus norvegicus [19] = test: In vivo inhibition of galactitol accumulation in sciatic nerves of rat at 5 mg/kg/day; format: functional; settings: Sciatic nerve
Rattus norvegicus [20] = test: In vivo inhibition of galactitol accumulation in sciatic nerves of rat at 10 mg/kg/day; format: functional; settings: Sciatic nerve
Rattus norvegicus [21] = test: In vivo inhibition of galactitol accumulation in diaphragm of rat at 49 mg/kg/day; format: functional
Rattus norvegicus [22] = test: In vivo inhibition of galactitol accumulation in sciatic nerves of rat at 49 mg/kg/day; Not significant; format: functional, organism-based; settings: Sciatic nerve
Rattus norvegicus [23] = test: In vivo inhibition of galactitol accumulation in diaphragm of rat at 10 mg/kg/day; format: functional
Rattus norvegicus [24] = test: In vivo inhibition of galactitol accumulation in diaphragm of rat at 48 mg/kg/day; format: functional
Rattus norvegicus [25] = test: In vivo inhibition of galactitol accumulation in sciatic nerves of rat at 48 mg/kg/day; format: functional; settings: Sciatic nerve
Rattus norvegicus [26] = test: In vivo inhibition of galactitol accumulation in sciatic nerves of rat at 47 mg/kg/day; Not significant; format: functional, organism-based; settings: Sciatic nerve
Rattus norvegicus [27] = test: In vivo inhibition of galactitol accumulation in diaphragm of rat at 47 mg/kg/day; Not significant; format: functional, organism-based
Rattus norvegicus [28] = test: In vivo inhibition of galactitol accumulation in sciatic nerves of rat at 49 mg/kg/day; format: functional; settings: Sciatic nerve
[29] = target: Aldo-keto reductase family 1 member B1 (Bos taurus) (UniProt P16116); test: In vitro% decrease of aldose reductase was measured in isolated partially purified bovine lens preparations at 10e-7 M concentration
Rattus norvegicus [30] = test: In vivo inhibition of galactitol accumulation in diaphragm of rat at 52 mg/kg/day; Not significant; format: functional, organism-based
Rattus norvegicus [31] = test: In vivo inhibition of galactitol accumulation in sciatic nerves of rat at 52 mg/kg/day; Not significant; format: functional, organism-based; settings: Sciatic nerve
[32] = target: Aldo-keto reductase family 1 member B1 (Bos taurus) (UniProt P16116); test: In vitro % decrease of […] reductase was measured in isolated partially purified bovine lens preparations at 10e-7 M concentration

inhibition [2]: inactive
SMILES: COc1ccc2c(C(=S)N(C)CC(N)=O)cc(C)cc2c1Br
inhibition in vivo at 24 mg/kg/day (Rattus norvegicus [1]): 70%
inhibition (Rattus norvegicus [3]): inactive
inhibition (Rattus norvegicus [4]): inactive
inhibition in vivo at 24 mg/kg/day (Rattus norvegicus [5]): 68%

inhibition [8]: 78%
SMILES: CCOC(=O)N(CC(=O)O)C(=O)c1c(OCC(F)(F)F)ccc2c(C(F)(F)F)c(OC)ccc12
inhibition (Rattus norvegicus [6]): inactive
inhibition in vivo at 27 mg/kg/day (Rattus norvegicus [7]): 39%
Inhibition (Rattus norvegicus [9]): 72%
Inhibition (Rattus norvegicus [10]): 42%

inhibition [8]: 89%
SMILES: COc1ccc2c(C(=S)N(C)CC(=O)O)c(Oc3ccccc3)ccc2c1C(F)(F)F
inhibition in vivo at 24 mg/kg/day (Rattus norvegicus [1]): 83%
inhibition (Rattus norvegicus [11]): inactive

SMILES: COc1ccc2c(C(=S)N(C)CC(=O)O)c(F)ccc2c1C(F)(F)F
inhibition in vivo at 25 mg/kg/day (Rattus norvegicus [12]): 92%
inhibition (Rattus norvegicus [13]): inactive
inhibition in vivo at 25 mg/kg/day (Rattus norvegicus [14]): 93%

inhibition [8]: 86%
SMILES: COc1ccc2c(C(=S)N(C)CC(=O)O)cc(F)cc2c1Br
inhibition (Rattus norvegicus [15]): inactive
inhibition in vivo at 26 mg/kg/day (Rattus norvegicus [16]): 86%

SMILES: COc1ccc2c(C(=S)N(C)CC(N)=O)c(F)ccc2c1C(F)(F)F
inhibition in vivo at 5 mg/kg/day (Rattus norvegicus [17]): 80%
inhibition (Rattus norvegicus [18]): inactive
inhibition in vivo at 5 mg/kg/day (Rattus norvegicus [19]): 33%
inhibition in vivo at 10 mg/kg/day (Rattus norvegicus [20]): 54%

inhibition [8]: 84%
SMILES: COc1ccc2c(C(=S)N(C)CC(=O)O)ccc(F)c2c1C(F)(F)F
inhibition in vivo at 25 mg/kg/day (Rattus norvegicus [12]): 94%
inhibition in vivo at 25 mg/kg/day (Rattus norvegicus [14]): 90%

inhibition [8]: 81%
SMILES: COc1ccc2c(C(=S)N(C)CC(=O)O)c(Cl)ccc2c1C(F)(F)F
inhibition in vivo at 24 mg/kg/day (Rattus norvegicus [1]): 90%
inhibition (Rattus norvegicus [11]): inactive

inhibition [8]: 42%
SMILES: CCCCOc1ccc2c(C(F)(F)F)c(OC)ccc2c1C(=O)N(C)CC(=O)O
inhibition in vivo at 49 mg/kg/day (Rattus norvegicus [21]): 55%
inhibition (Rattus norvegicus [22]): inactive

SMILES: COC(=O)N(CC(=O)O)C(=O)c1cccc2c(C(F)(F)F)c(OC)ccc12
inhibition in vivo at 10 mg/kg/day (Rattus norvegicus [23]): 76%
inhibition in vivo at 48 mg/kg/day (Rattus norvegicus [24]): 54%
Inhibition (Rattus norvegicus [9]): 58%
inhibition in vivo at 10 mg/kg/day (Rattus norvegicus [20]): 86%
inhibition in vivo at 48 mg/kg/day (Rattus norvegicus [25]): 70%

inhibition [8]: 84%
SMILES: CCOC(=O)N(CC(=O)O)C(=O)c1cc(Br)cc2c(Br)c(OC)ccc12
inhibition (Rattus norvegicus [26]): inactive
inhibition (Rattus norvegicus [27]): inactive

inhibition [8]: 83%
SMILES: COC(=O)N(CC(=O)O)C(=O)c1c(OC)ccc2c(C(F)(F)F)c(OC)ccc12
inhibition in vivo at 49 mg/kg/day (Rattus norvegicus [21]): 33%
inhibition in vivo at 49 mg/kg/day (Rattus norvegicus [28]): 36%

inhibition [2]: inactive
SMILES: CCOC(=O)NC(=O)CN(C)C(=O)c1c(F)ccc2c(C(F)(F)F)c(OC)ccc12
inhibition in vivo at 5 mg/kg/day (Rattus norvegicus [17]): 22%
inhibition in vivo at 10 mg/kg/day (Rattus norvegicus [23]): 41%
inhibition in vivo at 5 mg/kg/day (Rattus norvegicus [19]): 36%
inhibition in vivo at 10 mg/kg/day (Rattus norvegicus [20]): 59%

inhibition [8]: 83%
SMILES: COC(=O)N(CC(=O)O)C(=O)c1c(OCC(F)(F)F)ccc2c(C(F)(F)F)c(OC)ccc12
inhibition (Rattus norvegicus [6]): inactive
inhibition in vivo at 27 mg/kg/day (Rattus norvegicus [7]): 49%
Inhibition (Rattus norvegicus [9]): 64%
Inhibition (Rattus norvegicus [10]): 36%

inhibition [8]: 84%
SMILES: COc1ccc2c(C(=S)N(C)CC(=O)O)c(OCc3ccccc3)ccc2c1C(F)(F)F
inhibition (Rattus norvegicus [15]): inactive
inhibition in vivo at 26 mg/kg/day (Rattus norvegicus [16]): 80%

inhibition [29]: 66%
SMILES: COc1ccc2c(C(=O)N(C)CC(=O)O)cc(Cc3ccc(Br)cc3F)cc2c1Br
Inhibition (Rattus norvegicus [9]): 92%
inhibition (Rattus norvegicus [30]): inactive
inhibition (Rattus norvegicus [31]): inactive
Inhibition (Rattus norvegicus [10]): 63%

inhibition [32]: 70%
SMILES: COc1ccc2c(C(=S)N(C)CC(=O)O)c(C)ccc2c1C(F)(F)F
inhibition (Rattus norvegicus [15]): inactive
inhibition in vivo at 26 mg/kg/day (Rattus norvegicus [16]): 91%

inhibition [8]: 64%
SMILES: COc1ccc2c(C(=O)N(C)CC(=O)O)ccc(F)c2c1C(F)(F)F
inhibition (Rattus norvegicus [15]): inactive
inhibition in vivo at 26 mg/kg/day (Rattus norvegicus [16]): 15%
